# Assay results from patent US20240181022A1, “AMURINS LYSINS, AND LYSIN-ANTIMICROBIAL PEPTIDE (AMP) CONSTRUCTS ACTIVE AGAINST GRAM-NEGATIVE BACTERIA” (priority 2021, published 2024).
# Like-named read-outs stand apart in the source and are kept apart here. Where a SMILES comes first, the peptide text is derived from it. Where no end group is shown, it is not given here. [ ]: non-standard residue; d: D form.
# Key:
# [1] = test system: M. kansasii; assay: MIC against M. kansasii; type: cell-based, Mycobacterium kansasii; conditions: M. kansasi (ATCC 12478); CAAT media
# [2] = test system: Mycobacterium species; type: cell-based
# [3] = test system: S. maltophilia; assay: Serial passage resistance development study, S. maltophilia; type: cell-based, Stenotrophomonas maltophilia; conditions: S. maltophilia, day 28, triplicate
# [4] = test system: A. ruhlandii; type: cell-based, Achromobacter ruhlandii
# Protocol: (§1) The MBEC (after 2-hour treatments) was determined as described in Jones and Wozniak, PsI Produced by Mucoid Pseudomonas aeruginosa Contributes to the Establishment of Biofilms and Immune Evasion, Am. Soc. Microbiol. 2017, 8(3):e00864-17. Meropenem and tobramycin were included as controls and were both poorly active, with MBEC90 values of >256 μg/mL (data not shown).
# [5] = test system: B. multivorans; assay: MIC by broth microdilution against B. multivorans; type: cell-based, Burkholderia multivorans; conditions: B. multivorans isolates
# Protocol: (§2) MIC values were determined using a modification of the standard broth microdilution reference method defined by the Clinical and Laboratory Standards Institute (CLSI), CLSL. 2015. Methods for Dilution Antimicrobial Susceptibility Tests for Bacteria That Grow Aerobically; Approved Standard-10th Edition. Clinical and Laboratory Standards Institute, Wayne, PA. The modification was based on the replacement of Mueller Hinton Broth with either CAA media (with and without NaCl) or CAA supplemented with 2.5% human serum. MIC is the minimum concentration of peptide sufficient to suppress at least 80% of the bacterial growth compared to control.
# (§3) Based on these nine most prevalent strains, direct lytic agents, including GN370, AM1, AM2, and AM3, were evaluated against various isolates from each of the 9 strains. MICs and MBECs (Example 3) were determined, and a sputum inhibition test was conducted, as described below in Example 5.
# (§4) The MICs for were determined as described below using the broth microdilution method for meropenem, GN370, AM1, AM2, and AM3. The results are shown below in Tables 8-12.
# [6] = test system: P. apista; assay: MIC by broth microdilution against P. apista; type: cell-based, Pandoraea apista; conditions: P. apista isolates
# Protocol: as §2, §3, §4
# [7] = test system: B. multivorans
# Protocol: (§5) Biofilms are then washed and treated with e.g., a 2-fold dilution series of the lysin in TSBg at e.g., 37° C. for 24 hours. After treatment, wells are washed, air-dried at e.g., 37° C. and stained with e.g., 0.05% crystal violet for 10 minutes.
# (§6) The antibiofilm activity of GN370, AM1, AM2, and AM3 was evaluated against various Gram-negative bacteria prevalent in cystic fibrosis patients, including P. aeruginosa, S. maltophilia, and A. xylosoxidans.
# (§7) The MBEC (after 2-hour treatments) was determined as described in Jones and Wozniak, PsI Produced by Mucoid Pseudomonas aeruginosa Contributes to the Establishment of Biofilms and Immune Evasion, Am. […] Microbiol.
# [8] = test system: S. maltophilia
# Protocol: as §5, §6, §7
# [9] = test system: A. xylosoxidans
# Protocol: as §5, §6, §7
# [10] = test system: S. maltophilia; assay: Time-kill assay in cystic fibrosis patient sputum, S. maltophilia; type: cell-based, Stenotrophomonas maltophilia; conditions: for effect of sputum on antibacterial activity: 10% CF sputum vs no sputum; for killing by 1 hour, maintained at 24 hours: time-kill
# Source text: Sputum from 5 cystic fibrosis patients was pooled. The resulting mixture was not filtered, as it was very dense and not amenable to sterilization by filtration. Sputum is known to be a complex mixture of DNA, carbohydrates, and lipids ([…], 2016). As used herein, the term “sputum” refers to the mucus present in the respiratory tract of an animal, such as a human. Sputum may increase in thickness due to the irritation or infection, including bacterial infection, and in some instances, may be expelled by the animal while coughing. In certain instances, cystic fibrosis may be characterized by the presence of a thick, sticky mucus or sputum present in the lungs of cystic fibrosis patients. The activity of GN370, AM1, AM2, AM3, and meropenem was determined in the sputum using a time-kill assay format as disclosed in Zhang et al., Antimicrobial peptide therapeutics for cystic fibrosis, Antimicrobial Agents Chemother. 2005; 49(7):2921-2927. […] Untreated controls were included in addition to pretreatment plating (t=0) for a baseline CFU determination. Activity was also determined in the absence of sputum for comparison to activity observed in the presence of sputum.
# [11] = test system: P. aeruginosa; conditions: for MIC50 / MIC90 / MIC Range: P. aeruginosa isolates; for MIC: P. aeruginosa test organism of the sputum time-kill assay; for activity (MIC) against P. aeruginosa isolates: all tested isolates, Tables 8-12
# [12] = test system: M. fortuitum; assay: MIC against M. fortuitum; type: cell-based, Mycobacterium fortuitum; conditions: M. fortuitum (ATCC 6841); CAAT media
# [13] = test system: P. apista; type: cell-based, Pandoraea apista
# Protocol: as §1
# [14] = test system: B. gladioli; assay: MIC by broth microdilution against B. gladioli; type: cell-based, Burkholderia gladioli; conditions: B. gladioli isolates
# Protocol: as §2, §3, §4
# [15] = test system: M. intracellulare; assay: MIC against M. intracellulare; type: cell-based, Mycobacterium intracellulare; conditions: M. intracellulare (ATCC 13950); CAAT media
# [16] = test system: Achromobacter spp.; assay: MIC by broth microdilution against Achromobacter spp.; type: cell-based; conditions: Tables 8-12
# Protocol: as §2, §4
# [17] = test system: B. gladioli; type: cell-based, Burkholderia gladioli; conditions: B. gladioli (15); 2-hour treatment
# Protocol: as §1
compound,measurement,setting,value
CC[C@H](C)[C@H](NC(=O)[C@@H](CCCNC(=N)N)NC(=O)[C@H](Cc1ccccc1)NC(=O)CNC(=O)CNC(=O)[C@@H](CCCNC(=N)N)NC(=O)[C@H](CCSC)NC(=O)[C@@H]1CCCN1C(=O)[C@@H](CCCNC(=N)N)NC(=O)[C@H](C)NC(=O)[C@@H](CCCNC(=N)N)NC(=O)[C@H](CC(C)C)NC(=O)[C@H](CC(N)=O)NC(=O)[C@@H](CCCNC(=N)N)NC(=O)[C@@H](CCCCN)NC(=O)[C@@H](CCCCN)NC(=O)[C@@H](NC(=O)[C@H](CC(N)=O)NC(=O)[C@@H](NC(=O)[C@H](C)NC(=O)CNC(=O)[C@@H](CCCNC(=N)N)NC(=O)[C@@H](NC(=O)[C@H](Cc1ccccc1)NC(=O)[C@@H](NC(=O)[C@@H](CCCCN)NC(=O)[C@@H](CCCNC(=N)N)NC(=O)[C@H](CO)NC(=O)[C@@H](CCCCN)NC(=O)[C@@H](CCCCN)NC(=O)[C@@H](CCCCN)NC(=O)[C@H](CO)NC(=O)[C@H](CC(C)C)NC(=O)[C@@H](CCCCN)NC(=O)[C@@H](CCCNC(=N)N)NC(=O)[C@@H](CCCNC(=N)N)NC(=O)[C@@H](CCCCN)NC(=O)[C@@H](N)CCSC)[C@@H](C)CC)[C@@H](C)O)C(C)C)C(C)C)C(=O)O [AM3] (H-M[dK][dR][dR][dK]LS[dK][dK][dK]S[dR][dK]IFT[dR]GAVNV[dK][dK][dR]NL[dR]A[dR]PM[dR]GGF[dR]I-OH; N-terminus and C-terminus assumed),MIC,[1],1 µg/mL
same,activity (MIC) against Mycobacterium species,[2],highest activity
same,change in MIC over serial passage,[3],no increase in MIC
same,MBEC50,[4],16 µg/mL
same,MBEC90,[4],16 µg/mL
same,MBEC Range,[4],1 to 32 µg/mL
same,MIC50,[5],> 128 µg/mL
same,MIC90,[5],> 128 µg/mL
same,MIC50,[6],> 128 µg/mL
same,MIC90,[6],> 128 µg/mL
same,MBEC50,[7],2 µg/mL
same,MBEC90,[7],4 µg/mL
same,MBEC Range,[7],1 to 8 µg/mL
same,MBEC50,[8],1 µg/mL
same,MBEC90,[8],2 µg/mL
same,MBEC Range,[8],0.125 to 16 µg/mL
same,MBEC50,[9],1 µg/mL
same,MBEC90,[9],2 µg/mL
same,MBEC Range,[9],0.125 to 4 µg/mL
same,antibiofilm activity (MBEC) against A. xylosoxidans,[9]; 2-hour treatments,primarily active
same,effect of sputum on antibacterial activity,[10],"none of GN370, AM1, AM2, and AM3 was inhibited"
same,Log10 CFU/mL of sputum,"[10]; absence of sputum, 1 hr",2.3 Log10 CFU/mL of sputum
same,Log10 CFU/mL of sputum,"[10]; absence of sputum, 3 hr",2.3 Log10 CFU/mL of sputum
same,Log10 CFU/mL of sputum,"[10]; absence of sputum, 24 hr",2.3 Log10 CFU/mL of sputum
same,Log10 CFU/mL of sputum,"[10]; presence of 10% sputum, 1 hr",2.3 Log10 CFU/mL of sputum
same,Log10 CFU/mL of sputum,"[10]; presence of 10% sputum, 3 hr",2.3 Log10 CFU/mL of sputum
same,Log10 CFU/mL of sputum,"[10]; presence of 10% sputum, 24 hr",2.3 Log10 CFU/mL of sputum
same,"killing by 1 hour, maintained at 24 hours",[10],complete killing
same,MIC50,[11],0.06 µg/mL
same,MIC90,[11],0.25 µg/mL
same,MIC Range,[11]; in µg/mL,0.016-1
same,MIC,[11],(MIC = 0.125)
same,activity (MIC) against P. aeruginosa isolates,[11],highly active
same,MIC,[12],2 µg/mL
same,MBEC50,[13],8 µg/mL
same,MBEC90,[13],8 µg/mL
same,MBEC Range,[13],4 to 16 µg/mL
same,MIC50,[14],32 µg/mL
same,MIC90,[14],128 µg/mL
same,MIC,[15],2 µg/mL
same,activity (MIC) against Achromobacter spp.,[16],variably active
same,MBEC50,[17],4 µg/mL
same,MBEC90,[17],16 µg/mL
M[dR]L[dK]MA[dR][dR][dR]Y[dR]LP[dR][dR][dR]S[dR][dR]LFS[dR]TAL[dR]MHP[dR]N[dR]L[dR][dR]IM[dR]GGI[dR]F [AM2],MIC,[1],2 µg/mL
same,activity (MIC) against Mycobacterium species,[2],highest activity
same,change in MIC over serial passage,[3],no increase in MIC
same,MBEC50,[4],8 µg/mL
same,MBEC90,[4],32 µg/mL
same,MBEC Range,[4],1 to 32 µg/mL
same,MIC50,[5],> 128 µg/mL
same,MIC90,[5],> 128 µg/mL
same,MIC50,[6],> 128 µg/mL
same,MIC90,[6],> 128 µg/mL
same,MBEC50,[7],2 µg/mL
same,MBEC90,[7],16 µg/mL
same,MBEC Range,[7],1 to 16 µg/mL
same,MBEC50,[8],1 µg/mL
same,MBEC90,[8],2 µg/mL
same,MBEC Range,[8],0.125 to 4 µg/mL
same,antibiofilm activity (MBEC) against S. maltophilia,[8]; 2-hour treatments,highly active
same,MBEC50,[9],2 µg/mL
same,MBEC90,[9],8 µg/mL
same,MBEC Range,[9],0.125 to 32 µg/mL
same,effect of sputum on antibacterial activity,[10],"none of GN370, AM1, AM2, and AM3 was inhibited"
same,Log10 CFU/mL of sputum,"[10]; absence of sputum, 1 hr",2.3 Log10 CFU/mL of sputum
same,Log10 CFU/mL of sputum,"[10]; absence of sputum, 3 hr",2.3 Log10 CFU/mL of sputum
same,Log10 CFU/mL of sputum,"[10]; absence of sputum, 24 hr",2.3 Log10 CFU/mL of sputum
same,Log10 CFU/mL of sputum,"[10]; presence of 10% sputum, 1 hr",2.3 Log10 CFU/mL of sputum
same,Log10 CFU/mL of sputum,"[10]; presence of 10% sputum, 3 hr",2.3 Log10 CFU/mL of sputum
same,Log10 CFU/mL of sputum,"[10]; presence of 10% sputum, 24 hr",2.3 Log10 CFU/mL of sputum
same,"killing by 1 hour, maintained at 24 hours",[10],complete killing
same,MIC50,[11],0.06 µg/mL
same,MIC90,[11],0.25 µg/mL
same,MIC Range,[11],0.016-0.5^
same,MIC,[11],(MIC = 0.25)
same,activity (MIC) against P. aeruginosa isolates,[11],highly active
same,MIC,[12],4 µg/mL
same,MBEC50,[13],8 µg/mL
same,MBEC90,[13],16 µg/mL
same,MIC50,[14],4 µg/mL
same,MIC90,[14],8 µg/mL
same,MIC Range,[14]; in µg/mL,0.016-16
same,MIC,[15],0.5 µg/mL
same,activity (MIC) against Achromobacter spp.,[16],variably active
